The source of these data is patent US12296014B2, “External preparation comprising non-lamellar liquid crystal-forming lipid” (FARNEX INCORPORATED, priority 2018, dated 2025).

The nature of data set [1]: Viscosity of the synthesized amphipathic compound. As to conditions: at shear velocity of 92 l/s. The format is physicochemical. The protocol:
Specifically, the amphipathic compound represented by the general formula (I) has a viscosity of preferably 15.0 Pa-s or less, more preferably 11.0 Pa-s or less, further preferably 6.0 Pa-s or less, by itself, as measured at 25° C. This viscosity can be measured using, for example, a viscosity and viscoelasticity measuring apparatus (Gemini II, Malvern Instruments Ltd.) at a temperature of 25° C.
^1H-NMR and viscosity of the obtained compound were measured.

The conditions of data set [2]: cited from earlier work.

Each structure is given as a SMILES string.

`CC(C)=CCC/C(C)=C/CCC(C)=CCCC(=O)OCC(O)CO` (racemic) [Example 3, Mono-O-(5,9,13-trimethyltetradeca-4,8,12-trienoyl)glycerol] registered a Viscosity in data set [1] of 0.26 Pa·s. As to `CC(C)=CCC/C(C)=C/CC/C(C)=C/CCC(C)=CCCC(=O)OCC(O)CO` (racemic) [Example 6, Mono-O-(5,9,13,17-tetramethyloctadeca-4,8,12,16-tetraenoyl)glycerol], the Viscosity in data set [1] turned out to be 0.37 Pa·s. Compound `CC(=CCCC(=O)OCC(O)CO)CCCC(C)CCCC(C)C` (stereo not shown) [Example 1, Mono-O-(5,9,13-trimethyltetradec-4-enoyl)glycerol] returned a Viscosity in data set [1] of 0.48 Pa·s. The pKa is the negative logarithm of the acid dissociation constant. Regarding `CC1(C)O[C@@H]2C[C@H]3[C@@H]4CCC5=CC(=O)C=C[C@]5(C)[C@@]4(F)[C@@H](O)C[C@]3(C)[C@]2(C(=O)CO)O1` [triamcinolone acetonide], in data set [2], the pKa is on record as 13.37.
